Key:
[1] = Non Patent Literature 7; cited from earlier work
[2] = system: monocrotaline-induced pulmonary hypertensive rat model; assay: Right ventricular pressure (RVP) by catheterization in monocrotaline-induced pulmonary hypertensive rat model; type: in vivo; conditions: for RVP: measured 28 days after MCT, mean
Experimental: (§1) Monocrotaline (MCT) was subcutaneously injected at 50 mg/kg (in 50% dimethyl sulfoxide solution) to male Sprague-Dawley rats having a body weight of 250 g ± 10% to prepare pulmonary hypertensive rat models. Compound A′ and the same amount of a vehicle were orally administered to a compound A′ administration group (dose: 1 mg/kg, 3 mg/kg, or 10 mg/kg) and a control group, respectively, every day over 14 days from the 14th day after the MCT administration. This experiment was carried out using these groups each involving 9 rats (12 rats were used only in a vehicle control group). • (2) Effect on Right Ventricular Pressure (RVP)
(§2) The right ventricular pressure (RVP) was measured by catheterization for the rats that survived at 28 days after MCT administration (negative control group (monocrotaline non-administered group), 9 rats; vehicle control group, 8 rats; compound A′ 1 mg/kg administration group, 9 rats; compound A′ 3 mg/kg administration group, 5 rats; compound A′ 10 mg/kg administration group, 9 rats; total 40 rats).

[3] = system: monocrotaline-induced pulmonary hypertensive rat model; assay: Right ventricular systolic pressure (RVSP) by catheterization in monocrotaline-induced pulmonary hypertensive rat model; type: in vivo; conditions: for RVSP: measured 28 days after MCT, mean
Experimental: as §1
as §2, with “ventricular systolic” for “ventricular”, “(RVSP)” for “(RVP)”, “((negative” for “(negative”, “rats)).” for “rats).”

[4] = system: monocrotaline-induced pulmonary hypertensive rat model; assay: Right ventricular hypertrophy, RV/(LV+S), in monocrotaline-induced pulmonary hypertensive rat model; type: in vivo; conditions: for RV/(LV + S): 28 days after MCT, index for right cardiomegaly, mean
Experimental: as §1
The right ventricle weight (RV), left ventricle weight (LV), and interventricular septum weight (S) were measured for pulmonary hypertensive rat models that survived at 28 days after MCT administration (negative control group (monocrotaline non-administered group), 9 rats; vehicle control group, 8 rats; compound A′ 1 mg/kg administration group, 9 rats; compound A′ 3 mg/kg administration group, 5 rats; compound A′ 10 mg/kg administration group, 9 rats; total 40 rats)), and RV/(LV+S) was determined as an index for right cardiomegaly.

[5] = system: monocrotaline-induced pulmonary hypertensive rat model; assay: Pulmonary artery medial wall thickening (Elastica van Gieson staining) in monocrotaline-induced pulmonary hypertensive rat model; type: in vivo; conditions: for Thickness of pulmonary artery medial wall: 10 mg/kg orally, 28 days after MCT, mean
Experimental: as §1
(§3) Concerning the pulmonary hypertensive rat models that survived at 28 days after MCT administration (negative control group (monocrotaline non-administered group), 9 rats; vehicle control group, 8 rats; compound A′ 10 mg/kg administration group, 9 rats), tissue specimens of pulmonary tissue sections were prepared from 5 rats per group (total 15 rats) by Elastica van Gieson staining method to measure the thickening of the medial wall of the pulmonary artery.

[6] = system: monocrotaline-induced pulmonary hypertensive rat model; assay: Pulmonary artery occlusion index (Elastica van Gieson staining) in monocrotaline-induced pulmonary hypertensive rat model; type: in vivo; conditions: for Pulmonary artery occlusion: 10 mg/kg orally, 28 days after MCT, twice medial wall thickness divided by artery diameter, mean
Experimental: as §1
as §3, with “occlusion” for “the thickening of the medial wall”, “artery. A value obtained by dividing a value that is twice as much as the thickness of the pulmonary artery medial wall by the diameter of the pulmonary artery was used as an index of occlusion.” for “artery.”

[7] = system: monocrotaline-induced pulmonary hypertensive rat models; assay: Survival rate (Kaplan-Meier) in monocrotaline-induced pulmonary hypertensive rat models; type: in vivo; conditions: 1, 3 or 10 mg/kg orally once every day over 14 days from 14th day after MCT; result in words
Experimental: as §1, with “230” for “250”, “10 g” for “10%”, “respectively, once” for “respectively,”, “12 rats.” for “9 rats (12 rats were used only in a vehicle control group).”, “Survival Rate” for “Right Ventricular Pressure (RVP)”

[8] = molecular target: T1, interaction between human NHE1 and human CHP1 (Homo sapiens, UniProt P19634+Q99653); assay: CHP1-NHE1 interaction, AlphaScreen protein interaction measurement system; type: binding
T1 construct: made in house; host or cells: NHE1: FreeStyle 293 cells (microsomal fraction); CHP1: wheat germ cell-free translation system
T1 sequence (P19634 whole entry): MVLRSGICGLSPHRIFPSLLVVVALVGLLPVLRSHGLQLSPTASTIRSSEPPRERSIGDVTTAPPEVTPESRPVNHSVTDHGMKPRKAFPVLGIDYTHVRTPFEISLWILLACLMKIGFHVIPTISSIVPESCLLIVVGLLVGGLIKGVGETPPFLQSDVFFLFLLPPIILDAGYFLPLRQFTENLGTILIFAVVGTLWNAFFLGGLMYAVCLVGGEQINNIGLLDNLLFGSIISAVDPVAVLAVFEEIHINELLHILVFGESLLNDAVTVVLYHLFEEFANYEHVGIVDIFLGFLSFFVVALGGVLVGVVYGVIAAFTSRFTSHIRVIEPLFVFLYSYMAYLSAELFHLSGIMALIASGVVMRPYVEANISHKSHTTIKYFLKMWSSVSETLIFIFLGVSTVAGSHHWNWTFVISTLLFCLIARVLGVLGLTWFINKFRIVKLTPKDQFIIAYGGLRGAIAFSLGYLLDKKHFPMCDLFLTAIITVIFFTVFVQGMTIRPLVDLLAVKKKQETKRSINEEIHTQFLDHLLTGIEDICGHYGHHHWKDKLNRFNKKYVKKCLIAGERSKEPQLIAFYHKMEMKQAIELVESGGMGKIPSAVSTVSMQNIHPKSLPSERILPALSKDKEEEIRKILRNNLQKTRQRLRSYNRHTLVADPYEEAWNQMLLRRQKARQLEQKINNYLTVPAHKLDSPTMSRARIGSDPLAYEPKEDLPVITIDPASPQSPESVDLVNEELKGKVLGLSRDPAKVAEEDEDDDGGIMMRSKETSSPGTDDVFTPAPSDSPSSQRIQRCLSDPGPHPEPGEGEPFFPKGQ
T1 sequence (Q99653 whole entry): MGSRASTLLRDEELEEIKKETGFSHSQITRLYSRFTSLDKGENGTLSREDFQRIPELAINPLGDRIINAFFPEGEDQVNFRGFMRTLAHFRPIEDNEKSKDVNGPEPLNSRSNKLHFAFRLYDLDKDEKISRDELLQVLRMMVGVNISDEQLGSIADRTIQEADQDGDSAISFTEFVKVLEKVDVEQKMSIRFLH
Experimental: The inhibitory activity of compound A′ on the interaction between human NHE1 and human CHP1 was evaluated in a protein interaction measurement system using an amplified luminescence proximity homogeneous assay (AlphaScreen™ (PerkinElmer)). A microsomal fraction of FLAG-tagged full-length human NHE1 (Accession No. NM 003047) was prepared by being expressed in human embryonic kidney cell-derived FreeStyle™ 293 cells. Also, biotinylated full-length human CHP1 (Accession No. NM 007236) was expressed in a wheat germ cell-free translation system and purified. The NHE1 microsomal fraction and CHP 1 were diluted with an assay buffer (25 mM Tris-HCl (pH 7.4), 137 mM NaCl, 2.7 mM KCl, 0.1% BSA, 1 mM DTT), and compound A′ was added thereto. Then, the mixture was added to an Alpha Plate-384 Shallow Well (Perkin Elmer) in an amount of 2 μL/well, and reacted at room temperature for 60 minutes. Acceptor Beads and Donor Beads accompanying an AlphaScreen FLAG(M2) Detection Kit (PerkinElmer) were added thereto each in an amount of 2 μL/well, and the mixture was reacted at room temperature for 60 minutes. Thereafter, the AlphaScreen signal intensity was measured using an EnSpire Multi-label reader (PerkinElmer). Different concentrations of compound A′ (concentration: 50.0 nM to 0.8 nM) were evaluated in this test system. • (2) Results

[9] = molecular target: T2, calcium-sensing receptor (CaSR) (Homo sapiens, UniProt P41180); conditions: Non Patent Literature 6; cited from earlier work
T2 sequence (P41180 20-1078): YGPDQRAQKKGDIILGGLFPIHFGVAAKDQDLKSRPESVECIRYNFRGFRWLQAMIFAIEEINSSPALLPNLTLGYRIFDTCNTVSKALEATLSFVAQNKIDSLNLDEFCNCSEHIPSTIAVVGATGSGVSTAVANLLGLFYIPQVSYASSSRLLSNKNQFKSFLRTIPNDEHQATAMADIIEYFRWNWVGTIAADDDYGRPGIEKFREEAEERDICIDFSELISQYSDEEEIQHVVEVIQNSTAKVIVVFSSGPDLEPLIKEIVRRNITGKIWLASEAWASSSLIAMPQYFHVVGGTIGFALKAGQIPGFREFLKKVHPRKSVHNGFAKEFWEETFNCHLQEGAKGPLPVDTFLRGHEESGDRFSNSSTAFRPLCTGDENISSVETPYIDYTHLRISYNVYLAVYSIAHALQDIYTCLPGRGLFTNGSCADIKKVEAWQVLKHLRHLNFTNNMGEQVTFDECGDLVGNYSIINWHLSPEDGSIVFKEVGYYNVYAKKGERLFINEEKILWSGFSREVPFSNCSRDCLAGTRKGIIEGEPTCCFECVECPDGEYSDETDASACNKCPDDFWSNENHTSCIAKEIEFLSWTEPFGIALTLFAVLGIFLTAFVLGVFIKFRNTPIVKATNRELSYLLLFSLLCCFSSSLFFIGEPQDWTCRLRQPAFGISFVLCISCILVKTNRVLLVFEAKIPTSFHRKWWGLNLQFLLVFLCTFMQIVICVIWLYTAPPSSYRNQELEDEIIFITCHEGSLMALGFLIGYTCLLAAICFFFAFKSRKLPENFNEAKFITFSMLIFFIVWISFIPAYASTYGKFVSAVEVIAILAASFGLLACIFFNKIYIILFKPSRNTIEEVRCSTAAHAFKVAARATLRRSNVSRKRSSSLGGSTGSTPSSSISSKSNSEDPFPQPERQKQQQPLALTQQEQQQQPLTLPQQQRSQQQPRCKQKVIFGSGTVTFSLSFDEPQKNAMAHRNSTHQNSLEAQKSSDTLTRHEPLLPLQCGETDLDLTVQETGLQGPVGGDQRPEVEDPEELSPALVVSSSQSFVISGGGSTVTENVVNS

[10] = system: monocrotaline (MCT)-induced pulmonary hypertensive rats; conditions: Non Patent Literatures 1 to 5; cited from earlier work
[11] = system: hypoxia-induced pulmonary hypertensive (HPH) mice; conditions: Non Patent Literatures 1 to 5; cited from earlier work
[12] = 1 mg/kg orally every day over 14 days from 14th day after MCT
[13] = 3 mg/kg orally every day over 14 days from 14th day after MCT
[14] = 10 mg/kg orally every day over 14 days from 14th day after MCT
[15] = Diameter of pulmonary artery (<50 μM)

C[C@@H](N[C@H]1CCCC[C@@H]1NC(=O)c1ccc(Cl)cc1)c1cccc2ccccc12 [Calhex 231]
Effect on the action of an existing PAH drug (PDE 5 inhibitor/sildenafil) [1]: enhance the effect

CCc1ccc(C(CC)(CC)NC(=O)c2c(C)nn3c2N[C@@H](c2ccccc2)CC3(C)C)cc1 [Compound A′, (5R)-N-[1-Ethyl-1-(4-ethylphenyl)propyl]-2,7,7-trimethyl-5-phenyl-4,5,6,7-tetrahydropyrazolo[1,5-a]pyrimidine-3-carboxamide]
RVP [2, 12]: 26.4 mmHg | RVP [2, 13]: 22.4 mmHg | RVP [2, 14]: 17.8 mmHg | Effect on right ventricular pressure, in words ([2]; at 28 days after MCT administration, summary of Table 1): remarkably improved | RVSP [3, 12]: 48.3 mmHg | RVSP [3, 13]: 39.1 mmHg | RVSP [3, 14]: 28.0 mmHg | Effect on right ventricular systolic pressure (RVSP), in words ([3]; at 28 days after MCT administration, summary of Table 2): remarkably improved | RV/(LV + S) [4, 12]: 0.333 | RV/(LV + S) [4, 13]: 0.307 | RV/(LV + S) [4, 14]: 0.282 | Effect on right ventricular hypertrophy, in words ([4]; at 28 days after MCT administration, summary of Table 3): remarkably improved | Thickness of pulmonary artery medial wall ([5]; Diameter of pulmonary artery (50 μM-100 μM)): 6.86 | Thickness of pulmonary artery medial wall [5, 15]: 4.28 | Effect on thickening of the pulmonary artery medial wall, in words ([5]; at 28 days after MCT administration, summary of Table 4): remarkably improved | Pulmonary artery occlusion [6, 15]: 0.20 | Pulmonary artery occlusion ([6]; Diameter of pulmonary artery): 0.19 | Effect on occlusion of the pulmonary artery, in words ([6]; at 28 days after MCT administration, summary of Table 5): remarkably improved | Effect on survival rate (Kaplan-Meier survival curve, FIG. 1) [7]: remarkably improved the survival rate | IC50 ([8]; AlphaScreen, FLAG-tagged human NHE1 microsomal fraction and biotinylated human CHP1, 50.0 nM to 0.8 nM tested, read-out: CHP1-NHE1 interaction activity (50% inhibitory concentration)): 4.7 nM | CHP1-NHE1 inhibitory activity, in words ([8]; summary of Table 6): remarkable CHP1-NHE1 inhibitory activity | Activity at CaSR [9]: CaSR antagonist

CC(C)(Cc1ccc2ccccc2c1)NC[C@@H](O)COc1cccc(Cl)c1C#N [NPS-2143]
Reported effects on pulmonary hypertension pathology [10]: inhibit cardiac hypertrophy, a rise in right ventricular systolic pressure, myocardial tissue fibrosis, and pulmonary vascular remodeling | Reported effects on pulmonary hypertension pathology [11]: inhibit cardiac hypertrophy, a rise in right ventricular systolic pressure, myocardial tissue fibrosis, and pulmonary vascular remodeling | Effect on the action of an existing PAH drug (PDE 5 inhibitor/sildenafil) [1]: enhance the effect
